Drawing on patent publication US20020042400A1, “Novel alicyclic imidazoles as H3 agents” (priority 2000, published 2002), this text covers Kd and Ki for eight compounds.

Counter-ions that a name gives are not always drawn. Like-named read-outs stand apart in the source and are kept apart here.

In test [1] the target is T1, Histamine H3 receptor (Rattus norvegicus, UniProt Q9QYN8). The settings on record: radioligand Kd used in the Ki equation; read-out: Kd for [^3H]NAMHA; cited from earlier work.
The target of test [2] is T1, Histamine H3 receptor. The test can be described thus: Histamine H3 receptor competition binding with [^3H]NAMHA in rat cerebral cortical membranes. Here is the method:
Histamine H3 receptor affinity was determined in rat cerebral cortical membranes with [^3H]NAMHA as previously described (Tedford et al., 1995). Animals were euthanized by rapid decapitation and cerebral cortical tissues were harvested and frozen on dry ice. Cerebral cortical membranes were prepared in 50 mM sodium-phosphate buffered saline (pH 7.5 at 4° C.) containing: EDTA (10 mM), phenylmethylsulfonyl fluoride (0.1 mM), chymostatin and leupeptin (each 0.2 mg/50 mL). The final membrane pellets were resuspended in water and stored frozen at −80° C. prior to use. Protein concentrations were determined using the Coomassie Plus Protein Assay (Pierce, Rockford Ill.).
Competition binding was carried out in a total volume of 0.2 mL of 50 mM sodium-phosphate buffer (pH 7.4) using ˜1 nM [^3H]NAMHA ([^3H]—N^α-methylhistamine, available from NEN Research Products of Boston, Mass.) and 0.003 to […] concentrations of the test compounds. Non-specific binding was determined using 10 μM thioperamide. Samples were incubated for 40 minutes at 25° C. and subsequently filtered through Whatman GF/C glass fiber filters pre-soaked in binding buffer with 0.3% polyethyleneimine, using an Inotech cell harvester (Inotech Biosystems International, Lansing Mich.). The filters were rapidly washed three times with Tris-NaCl buffer (25 and 145 mM, respectively, pH 7.4, 4° C.). Samples were quantitated using Ecolume scintillation cocktail (ICN Biomedicals; Costa Mesa Calif.) and a Packard model 1900TR liquid scintillation analyzer (Packard Instrument Co., Downers Grove Ill.). IC50 values were extrapolated from a plot of receptor occupancy (i.e. % bound) vs. log [competitor].

Setting [3] is: rat cerebral cortical membranes, ~1 nM [^3H]NAMHA, 40 minutes at 25° C., Ki=IC50/(1+([ligand]/[Kd]), read-out: Ki.

T1 sequence (Q9QYN8 whole entry): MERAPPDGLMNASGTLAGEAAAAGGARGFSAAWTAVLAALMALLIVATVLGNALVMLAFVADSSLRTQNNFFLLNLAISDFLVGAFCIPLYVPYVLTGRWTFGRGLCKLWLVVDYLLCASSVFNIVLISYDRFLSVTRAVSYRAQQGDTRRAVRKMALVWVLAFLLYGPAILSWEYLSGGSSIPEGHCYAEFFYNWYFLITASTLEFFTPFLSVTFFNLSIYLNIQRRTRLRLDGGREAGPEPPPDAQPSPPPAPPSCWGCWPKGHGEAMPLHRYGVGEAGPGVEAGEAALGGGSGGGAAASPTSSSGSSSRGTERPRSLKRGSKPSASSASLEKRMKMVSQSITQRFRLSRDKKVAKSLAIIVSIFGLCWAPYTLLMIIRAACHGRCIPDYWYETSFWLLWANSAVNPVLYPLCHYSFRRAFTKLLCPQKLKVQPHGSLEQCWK

Broadly, the Kd is a measure of binding affinity in units of concentration. Regarding `CNCCc1cnc[nH]1` [[^3H]NAMHA, [^3H]—N^α-methylhistamine], the Kd at Histamine H3 receptor [1] is 0.4 nM.

Broadly, the Ki is the dissociation constant of the complex between target and ligand, obtained from inhibition or displacement. Compound `NC[C@@H]1C[C@H]1c1c[nH]cn1` (relative stereo) [Example 4, 4-(trans-2-aminomethyl-cyclopropyl) Imidazole Di-hydrochloric Acid Salt] gave a Ki at Histamine H3 receptor [2] of 4.5 nM.

Consider `OC[C@@H]1C[C@H]1c1c[nH]cn1` (relative stereo) [Example 6, 4-(trans-2-hydroxymethyl-cyclopropyl) Imidazole Trifluoroacetic Acid Salt], for which the inhibitory constant (Ki) on Histamine H3 receptor [2] (setting [3]) amounted to 263 nM.

Regarding `O/N=C/C1CC1c1c[nH]cn1` (stereo not drawn) [Example 5, 4-(trans-2-N-hydroxyimino-cyclopropyl) Imidazole], the inhibitory constant (Ki) at Histamine H3 receptor [2] (setting [3]) was determined as 23 nM.

For `CNC(=N)[C@@H]1C[C@H]1c1c[nH]cn1` (relative stereo) [Example 7, 4-(trans-2-N-methylamidino-cyclopropyl) Imidazole Di-hydrochloric Acid Salt], on Histamine H3 receptor [2] (setting [3]), the Ki was determined as 114 nM.

Take `N#C[C@@H]1C[C@H]1c1c[nH]cn1` (relative stereo) [Example 1, 4-(trans-2-cyano-cyclopropyl) Imidazole Trifluoroacetic Acid Salt]: on Histamine H3 receptor [2] (setting [3]), the Ki stood at 20 nM.

In the case of `NC(=O)[C@@H]1C[C@H]1c1c[nH]cn1` (relative stereo) [Example 2, 4-(trans-2-aminocarbonyl-cyclopropyl) Imidazole Trifluoroacetic Acid Salt], the Ki at Histamine H3 receptor [2] (setting [3]) stood at 127 nM.

As to `N=C(N)[C@@H]1C[C@H]1c1c[nH]cn1` (relative stereo) [Example 3, 4-(trans-2-amidino-cyclopropyl) Imidazole Di-trifluoroacetic Acid Salt], on Histamine H3 receptor [2] (setting [3]), the inhibitory constant (Ki) turned out to be 6.7 nM.
